Results on 14 substances are retold here after US20020058843A1, “Novel group IV metal precursors and a method of chemical vapor deposition using the same” (priority 2000, published 2002).

Entries after “also recorded” stand apart in the source; their conditions may differ. A value given as a limit tells only on which side of the number the result lay.

Common to all, as to assay type: physicochemical
The nature of data set [1]: Residue amount by thermal gravimetric analysis (TGA). Conditions: for Residue amount: TGA, atmospheric pressure, N2 20 ml/min, residual weight at 550° C.; for Residues after being vaporized: in words. As to the method: (§1) The physical properties set forth in Tables 1 and 2 were measured by the following method: the melting point and vaporization temperature were measured from endothermic peaks of TG-DSC curves. However, the values indicated by the symbol * in Table 1 were measured by a melting point-measuring device, because the heat absorption by vaporization occurred along with the melting of the precursors during the measurement. The residue amounts were measured by thermal gravimetric analysis (TGA) under atmospheric pressure (N2, 20 ml/min) and recorded as residual weight of the precursors at 550° C.

Data set [2] is described as follows: Vaporization temperature from endothermic peaks of TG-DSC curves. Conditions: for Vaporization temp.: endothermic peak of TG-DSC curve. As to the method: as §1
(§2) TG-DSC analysis for the precursor Ti(eip)2 according to Example 11 and the precursor Ti(2meip)2 according to Example 12 was carried out under atmospheric pressure in nitrogen gas or in air, and under a reduced pressure (1.3 mbar) using Netzsch STA 449C equipment. In this analysis, the precursors were heated to 550° C. at a scanning rate of 10° C./min in nitrogen gas of a flow rate of 20 ml/min, or in air of a flow rate of 30 ml/min.
(§3) (see, FIG. 1b). […] This difference is due to that Ti(2meip)2 has a relatively weak Ti-N bond compared with a Ti-O bond and has a homoleptic structure.

A short description of data set [3]: TG-DSC analysis in air (thermal decomposition). Conditions: for Thermal decomposition behaviour (exothermic peak): in words. On the procedure:
as §2, §3
For orientation: Differential scanning calorimetry records heat flow against a reference as temperature is scanned.

Data set [4] can be described thus: Vaporization rates according to temperature by thermogravimetric analysis (FIG. 4). The following applies: vs Ti(mpd)(thd)2, Ti(thd)2(O-iPr)2, Ba(methd)2, Sr(methd)2. From the text:
Moreover, vaporization rates of the precursor Ti(2meip)2 was compared to that of the commercial precursors Ti(mpd)(thd)2, Ti(thd)2 (O-iPr)2, Ba(methd)2 and Sr(methd)2 The results are shown in FIG. 4.

A short description of data set [5]: Moisture proof of precursor (left to stand in air, NMR analysis). Conditions: left to stand in air for three months or more. As to the method: 1.0 g of the precursor Ti(eip)2 prepared in Example 11 and 1.0 9 of the precursor Ti(2meip)2 prepared in Example 12 were placed in vials, respectively, and left to stand in air for three months or more. The analysis by NMR of the precursors was then carried out.

Data set [6] is described as follows: Solubility of precursor in organic solvents. Conditions: for Solubility in methanol: 0.5 g in 5 ml of methanol; for Solubility in n-butyl acetate: 0.5 g in 5 ml of n-butyl acetate. As to the method:
To evaluate solubility of precursors required in introducing the precursors in liquid phase for the deposition of thin films, the precursor Ti(eip)2 prepared in Example 11 and the precursor Ti(2meip)2 prepared in Example 12 were dissolved in methanol and n-butyl acetate, respectively. […] In contrast, 0.5 g of the precursor Ti(2meip)2 containing asymmetric carbons on its ligand was soluble in both methanol and n-butyl acetate.

“Barium bis[1-methoxyethoxy-2,2,6,6-tetramethyl-3,5-heptanedionate] [Ba(methd)2, reference compound]” returned a Residue amount in data set [1] (Table 2, prior art precursors) of 8.3%. The Vaporization temp. in data set [2] (Table 2, prior art precursors) was 391 °C.

For “Titanium bis(iso-propoxide)bis[(2,2,6,6-tetramethyl-3,5-heptanedionate)] [Ti(OiPr)2(thd)2, reference compound]”, in data set [3], the “Thermal decomposition behaviour (exothermic peak)” value is given as “weak exothermic peak over a wide range of temperature”. Further, the Residue amount in data set [1] (Table 2, prior art precursors) was found to be 7%. The same substance displayed a Vaporization temp. in data set [2] (Table 2, prior art precursors) of 240 °C.

Turning to “Titanium bis[4-(n-propoxy)imino-2-pentanoate] [Ti(pip)2]”, the Residue amount in data set [1] (Table 1) stood at 26.6%.

As to “Titanium bis[4-(2-methylethoxy)imino-2-pentanoate] [Ti(2meip)2]”, in data set [3] (TG-DSC in air, 30 ml/min, 10° C./min), the “Thermal decomposition, exothermic peak temperature” value was “about 315 °C”. The “Vapor pressure at the respective temperatures compared to the commercial precursors” value in data set [4] is recorded as “low in their vapor pressure”. Also, the “Stability on standing in air (NMR)” value in data set [5] is given as “no peaks of non-coordinated ligands; also recorded: not structurally changed”. In data set [1] (Table 1), this substance yielded a Residue amount of under 0.5%. The “Residues after being vaporized” value in data set [1] is “no residues”. In addition, in data set [6], the Solubility in methanol entry is listed as “soluble” and the “Solubility in n-butyl acetate” value was “soluble”. Besides, the Vaporization temp. in data set [2] (Table 1) turned out to be 290 °C.

On to “Titanium bis[4-(ethoxy)imino-2-pentanoate] [Ti(eip)2]”, for which, in data set [5], the “Stability on standing in air (NMR)” value is on record as “no peaks of non-coordinated ligands”. The Residue after evaporation entry in data set [1] is reported as “about 8%”. The Residue amount in data set [1] (Table 1) is reported as 8.0%. Further, in data set [6], the Solubility in methanol result is on record as “soluble” and the “Solubility in n-butyl acetate” value was “insoluble”. The Vaporization temp. in data set [2] (Table 1) came to 323 °C.

On to “Strontium bis[1-methoxyethoxy-2,2,6,6-tetramethyl-3,5-heptanedionate] [Sr(methd)2, reference compound]”, for which the Residue amount in data set [1] (Table 2, prior art precursors) came to 3.1%. In data set [2] (Table 2, prior art precursors), this substance returned a Vaporization temp. of 389 °C.

On to “Titanium bis[4-(1-ethylethoxy)imino-2-pentanoate] [Ti(1eeip)2]”, for which, in data set [1] (Table 1), the Residue amount was found to be 7.6%. This substance showed a Vaporization temp. in data set [2] (Table 1) of 303 °C.

Turning to “Titanium bis[4-(1,1-dimethylethoxy)imino-2-pentanoate] [Ti(1deip)2]”, the Residue amount in data set [1] (Table 1) was 13.7%. In data set [2] (Table 1), this substance registered a Vaporization temp. of 290 °C.

For “Titanium [2-methyl-2,4-dioxy-pentane]-bis[(2,2,6,6-tetramethyl-3,5-heptanedionate)] [Ti(mpd)(thd)2, reference compound]”, in data set [3], the “Thermal decomposition behaviour (exothermic peak)” value is “weak exothermic peak over a wide range of temperature”. Also, in data set [1] (Table 2, prior art precursors), the Residue amount is reported as under 0.5%. Besides, the Vaporization temp. in data set [2] (Table 2, prior art precursors) stood at 248 °C.

Consider “Titanium bis[2,6-dimethyl-5-(2-methylethoxy)imino-3-heptanoate] [Ti(26dm2meih)2]”, for which the Residue amount in data set [1] (Table 1) is recorded as 8.3%. For the same substance, in data set [2] (Table 1), the Vaporization temp. was 283 °C.

“Titanium bis[4-(1-methylethoxy)imino-2-pentanoate] [Ti(1meip)2]” registered a Residue amount in data set [1] (Table 1) of 3.3%. In data set [2] (Table 1), this substance had a Vaporization temp. of 295 °C.

On to “Titanium bis[2,2-dimethyl-5-(2-methylethoxy)imino-3-heptanoate] [Ti(22dm2meih)2]”, for which, in data set [1] (Table 1), the Residue amount is reported as 0.5%. For the same substance, in data set [1], the “Residues after being vaporized” value was “no residues”. In data set [6] (relative to Ti(2meip)2), the “Enhanced solubility over the precursor Ti(2meip)2” value was 20%. This substance registered a Vaporization temp. in data set [2] (Table 1) of 287 °C. Also, the “Temperature at which the precursor is vaporized” value in data set [2] (atmospheric pressure / nitrogen atmosphere, without thermal decomposition) stood at 287 °C.

“Titanium bis[2,2-dimethyl-5-(ethoxy)imino-3-heptanoate] [Ti(22dmeih)2]” returned a Residue amount in data set [1] (Table 1) of 10.6%. In addition, in data set [2] (Table 1), the Vaporization temp. turned out to be 307 °C.

For the substance “Titanium bis[2,6-dimethyl-5-(1-methylethoxy)imino-3-heptanoate] [Ti(26dm1meih)2]”, the Residue amount in data set [1] (Table 1) was determined as 3.6%. Also, the Vaporization temp. in data set [2] (Table 1) is 285 °C.
